Test results published in patent publication EP4745137A1 (Gluetacs Therapeutics (Shanghai) Co., Ltd., priority 2023, dated 2025).

What was measured:
[1] = biological target: T1, human Cereblon WT GST-tagged protein (Homo sapiens, UniProt Q96SW2); experiment: CRBN-binding affinity by HTRF (CEREBLON BINDING kit); settings: HTRF inhibitory activity, CEREBLON BINDING kit; read-out: HTRF IC50
T1 construct: purchased CISBIO 64BDCRBNPEH
Procedure: The CEREBLON BINDING kits (specification: 10,000 tests; product number: Catalog # 64BDCRBNPEH; CISBIO company) was used to determine the CRBN binding ability of the compounds to be tested through a HTRF method (homogeneous time-resolved fluorescence). The specific methods are as follows: • 1. […] Specifically, diluent #9 (1X) solution was used as the diluent, and multiple concentration gradients were set. […] Then, 2.5 µL of human Cereblon WT GST-tagged protein solution was added to each well. Finally, 5 µL of the thoroughly mixed Thalidomide-Re reagent and GST Eu antibody working solution were added to each of the aforementioned wells. […] The blank control wells were sequentially added with 2.5 µL of diluent #9 (1X) solution, 2.5 µL of binding buffer, and 5 µL of thoroughly mixed Thalidomide-Re reagent and GST Eu antibody working solution. • 4.

[2] = biological target: T2, CK1α (Homo sapiens, UniProt P48729+Q96SW2); experiment: Western-blot assay of substrate protein degradation in hPBMCs, CK1α; type: cell-based; settings: 24 hours of compound treatment, 50 nM and 500 nM tested (concentration behind the class not stated)
T2 construct: endogenous in cells; host or cells: hPBMCs (Milecell Biotechnologies)
T2 sequence (P48729 whole entry): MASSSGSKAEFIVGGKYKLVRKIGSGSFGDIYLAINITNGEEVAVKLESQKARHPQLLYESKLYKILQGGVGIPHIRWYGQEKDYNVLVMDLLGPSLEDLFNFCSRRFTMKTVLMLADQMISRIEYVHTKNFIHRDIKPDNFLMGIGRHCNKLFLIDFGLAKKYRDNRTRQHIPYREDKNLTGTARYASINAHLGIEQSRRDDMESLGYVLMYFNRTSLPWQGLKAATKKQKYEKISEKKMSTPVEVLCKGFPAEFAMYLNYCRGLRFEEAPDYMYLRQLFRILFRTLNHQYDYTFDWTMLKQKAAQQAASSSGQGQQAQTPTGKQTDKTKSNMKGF
T2 sequence (Q96SW2 whole entry): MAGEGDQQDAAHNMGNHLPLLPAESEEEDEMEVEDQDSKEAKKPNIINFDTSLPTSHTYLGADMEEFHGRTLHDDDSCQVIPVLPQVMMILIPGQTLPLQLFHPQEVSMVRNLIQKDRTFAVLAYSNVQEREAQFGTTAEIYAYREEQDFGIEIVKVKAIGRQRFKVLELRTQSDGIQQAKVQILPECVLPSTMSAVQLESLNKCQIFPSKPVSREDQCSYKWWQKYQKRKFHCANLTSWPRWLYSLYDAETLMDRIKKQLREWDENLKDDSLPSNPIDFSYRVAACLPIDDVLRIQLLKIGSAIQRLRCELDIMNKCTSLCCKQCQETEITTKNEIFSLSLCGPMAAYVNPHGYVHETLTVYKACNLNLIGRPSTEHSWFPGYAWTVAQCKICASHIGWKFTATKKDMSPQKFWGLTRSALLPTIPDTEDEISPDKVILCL
T2 sequence (Q16531 whole entry partner): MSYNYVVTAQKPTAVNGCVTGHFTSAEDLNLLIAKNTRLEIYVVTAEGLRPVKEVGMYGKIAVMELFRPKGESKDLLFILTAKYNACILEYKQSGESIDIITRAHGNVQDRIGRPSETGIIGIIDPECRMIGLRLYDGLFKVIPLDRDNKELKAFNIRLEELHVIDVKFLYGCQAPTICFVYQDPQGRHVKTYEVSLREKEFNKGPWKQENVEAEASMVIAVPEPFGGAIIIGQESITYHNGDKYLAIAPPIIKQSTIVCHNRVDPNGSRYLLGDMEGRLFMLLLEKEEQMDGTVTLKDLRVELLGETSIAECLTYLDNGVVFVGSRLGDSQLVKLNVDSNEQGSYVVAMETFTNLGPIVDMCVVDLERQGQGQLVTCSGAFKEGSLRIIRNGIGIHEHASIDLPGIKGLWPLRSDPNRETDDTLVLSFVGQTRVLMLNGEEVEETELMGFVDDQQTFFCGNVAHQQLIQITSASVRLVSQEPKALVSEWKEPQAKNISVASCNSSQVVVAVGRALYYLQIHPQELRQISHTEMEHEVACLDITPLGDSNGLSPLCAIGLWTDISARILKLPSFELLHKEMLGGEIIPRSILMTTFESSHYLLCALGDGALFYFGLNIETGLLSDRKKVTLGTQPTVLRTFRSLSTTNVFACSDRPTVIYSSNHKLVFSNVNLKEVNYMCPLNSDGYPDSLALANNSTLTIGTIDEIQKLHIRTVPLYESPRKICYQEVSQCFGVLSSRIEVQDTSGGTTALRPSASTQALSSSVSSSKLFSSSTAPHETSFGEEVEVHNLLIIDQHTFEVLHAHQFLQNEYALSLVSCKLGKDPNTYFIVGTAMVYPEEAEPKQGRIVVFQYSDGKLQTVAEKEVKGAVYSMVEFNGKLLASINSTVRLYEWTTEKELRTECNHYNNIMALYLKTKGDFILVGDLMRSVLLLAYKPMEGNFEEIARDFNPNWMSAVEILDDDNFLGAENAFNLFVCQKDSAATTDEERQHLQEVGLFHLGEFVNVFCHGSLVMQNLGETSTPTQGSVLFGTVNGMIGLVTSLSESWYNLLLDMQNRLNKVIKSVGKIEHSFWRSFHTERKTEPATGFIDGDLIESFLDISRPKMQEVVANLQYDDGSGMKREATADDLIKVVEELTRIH

[3] = biological target: T3, IKZF3 (Homo sapiens, UniProt Q96SW2+Q9UKT9); experiment: Western-blot assay of substrate protein degradation in hPBMCs, IKZF3; type: cell-based; settings: 24 hours of compound treatment, 50 nM and 500 nM tested (concentration behind the class not stated)
T3 construct: endogenous in cells; host or cells: hPBMCs (Milecell Biotechnologies)
T3 sequence (Q9UKT9 whole entry): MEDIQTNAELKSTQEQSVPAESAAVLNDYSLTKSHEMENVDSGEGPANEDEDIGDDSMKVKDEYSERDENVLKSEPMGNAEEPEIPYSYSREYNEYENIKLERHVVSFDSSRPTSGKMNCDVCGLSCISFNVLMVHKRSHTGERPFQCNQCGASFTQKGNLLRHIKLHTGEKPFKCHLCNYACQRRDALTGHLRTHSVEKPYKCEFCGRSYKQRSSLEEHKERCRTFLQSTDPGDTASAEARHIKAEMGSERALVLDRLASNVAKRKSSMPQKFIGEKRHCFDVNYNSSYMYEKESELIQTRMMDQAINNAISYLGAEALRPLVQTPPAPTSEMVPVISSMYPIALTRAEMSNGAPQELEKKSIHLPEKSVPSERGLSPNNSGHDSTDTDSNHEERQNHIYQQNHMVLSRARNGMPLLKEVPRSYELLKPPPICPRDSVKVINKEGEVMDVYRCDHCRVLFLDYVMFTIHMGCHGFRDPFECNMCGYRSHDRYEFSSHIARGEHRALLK
T3 sequence (Q96SW2 whole entry): as the sequence (Q96SW2 whole entry) above
T3 sequence (Q16531 whole entry partner): as the sequence (Q16531 whole entry partner) above

[4] = biological target: T4, IKZF2 (Homo sapiens, UniProt Q96SW2+Q9UKS7); experiment: Western-blot assay of substrate protein degradation in hPBMCs, IKZF2; type: cell-based; settings: 24 hours of compound treatment, 50 nM and 500 nM tested (concentration behind the class not stated)
T4 construct: endogenous in cells; host or cells: hPBMCs (Milecell Biotechnologies)
T4 sequence (Q9UKS7 whole entry): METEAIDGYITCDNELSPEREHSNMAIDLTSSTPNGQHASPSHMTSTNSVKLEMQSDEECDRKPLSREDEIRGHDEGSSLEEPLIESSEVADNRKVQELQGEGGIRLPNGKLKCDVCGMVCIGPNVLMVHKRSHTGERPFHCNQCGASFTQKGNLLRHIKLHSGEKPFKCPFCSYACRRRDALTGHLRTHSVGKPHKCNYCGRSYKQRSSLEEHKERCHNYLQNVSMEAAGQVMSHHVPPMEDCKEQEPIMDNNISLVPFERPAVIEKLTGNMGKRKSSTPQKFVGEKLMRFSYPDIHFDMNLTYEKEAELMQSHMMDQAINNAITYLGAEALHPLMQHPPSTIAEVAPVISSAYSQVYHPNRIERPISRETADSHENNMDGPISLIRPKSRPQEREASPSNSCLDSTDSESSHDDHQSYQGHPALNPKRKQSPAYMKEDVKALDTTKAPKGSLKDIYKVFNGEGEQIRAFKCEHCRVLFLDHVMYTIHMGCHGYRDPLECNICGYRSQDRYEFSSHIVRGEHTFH
T4 sequence (Q96SW2 whole entry): as the sequence (Q96SW2 whole entry) above
T4 sequence (Q16531 whole entry partner): as the sequence (Q16531 whole entry partner) above

[5] = biological target: T5, IKZF1 (Homo sapiens, UniProt Q13422+Q96SW2); experiment: Western-blot assay of substrate protein degradation in hPBMCs, IKZF1; type: cell-based; settings: 24 hours of compound treatment, 50 nM and 500 nM tested (concentration behind the class not stated)
T5 construct: endogenous in cells; host or cells: hPBMCs (Milecell Biotechnologies)
T5 sequence (Q13422 whole entry): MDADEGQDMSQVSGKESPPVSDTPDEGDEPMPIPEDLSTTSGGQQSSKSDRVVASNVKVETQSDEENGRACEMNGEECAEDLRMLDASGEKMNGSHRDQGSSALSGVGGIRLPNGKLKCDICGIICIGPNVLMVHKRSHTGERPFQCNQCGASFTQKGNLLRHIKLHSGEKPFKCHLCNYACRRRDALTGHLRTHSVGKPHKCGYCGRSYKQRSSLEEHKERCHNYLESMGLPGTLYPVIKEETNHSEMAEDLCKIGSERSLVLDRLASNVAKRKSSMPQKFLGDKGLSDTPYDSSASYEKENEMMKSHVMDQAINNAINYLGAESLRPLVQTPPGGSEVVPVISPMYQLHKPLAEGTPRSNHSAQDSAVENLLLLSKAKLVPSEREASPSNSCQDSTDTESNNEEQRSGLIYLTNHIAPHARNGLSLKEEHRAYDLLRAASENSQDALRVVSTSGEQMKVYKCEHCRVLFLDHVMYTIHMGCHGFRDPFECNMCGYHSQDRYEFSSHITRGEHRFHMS
T5 sequence (Q96SW2 whole entry): as the sequence (Q96SW2 whole entry) above
T5 sequence (Q16531 whole entry partner): as the sequence (Q16531 whole entry partner) above

[6] = biological target: T6, WEE1 (Homo sapiens, UniProt P30291+Q96SW2); experiment: Western-blot assay of substrate protein degradation in hPBMCs, WEE1; type: cell-based; settings: 24 hours of compound treatment, 50 nM and 500 nM tested (concentration behind the class not stated)
T6 construct: endogenous in cells; host or cells: hPBMCs (Milecell Biotechnologies)

[7] = biological target: T7, GSPT1 (Homo sapiens, UniProt P15170+Q96SW2); experiment: Western-blot assay of substrate protein degradation in hPBMCs, GSPT1; type: cell-based; settings: 24 hours of compound treatment, 50 nM and 500 nM tested (concentration behind the class not stated)
T7 construct: endogenous in cells; host or cells: hPBMCs (Milecell Biotechnologies)
T7 sequence (P15170 whole entry): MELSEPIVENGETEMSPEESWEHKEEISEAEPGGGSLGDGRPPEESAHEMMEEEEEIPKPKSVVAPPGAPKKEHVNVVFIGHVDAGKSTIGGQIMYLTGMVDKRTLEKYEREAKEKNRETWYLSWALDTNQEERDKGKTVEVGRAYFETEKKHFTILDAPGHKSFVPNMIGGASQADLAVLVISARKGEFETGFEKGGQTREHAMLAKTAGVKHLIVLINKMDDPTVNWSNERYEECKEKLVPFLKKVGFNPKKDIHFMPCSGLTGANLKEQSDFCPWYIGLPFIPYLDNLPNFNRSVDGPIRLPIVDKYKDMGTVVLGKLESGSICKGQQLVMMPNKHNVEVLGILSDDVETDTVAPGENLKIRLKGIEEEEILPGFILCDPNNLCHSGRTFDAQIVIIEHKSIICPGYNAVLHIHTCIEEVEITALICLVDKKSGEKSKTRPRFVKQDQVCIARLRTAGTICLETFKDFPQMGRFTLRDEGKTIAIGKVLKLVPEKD
T7 sequence (Q96SW2 whole entry): as the sequence (Q96SW2 whole entry) above
T7 sequence (Q16531 whole entry partner): as the sequence (Q16531 whole entry partner) above

T1 sequence (Q96SW2 whole entry): as the sequence (Q96SW2 whole entry) above

SMILES	IC50 [1]	CK1a substrate protein remaining % [2]	IKZF3 substrate protein remaining % [3]	IKZF2 substrate protein remaining % [4]	IKZF 1 substrate protein remaining % [5]	Weel substrate protein remaining % [6]	GSPT1 substrate protein remaining % [7]
O=C1CCC(N2Cc3cc(CN4CCN(c5nc6c(c(N7CCNCC7)n5)SCC6)CC4)ccc3C2=O)C(=O)N1 (centres unmarked) [GT-04720, 3-(1-oxo-5-((4-(4-(piperazin-1-yl)-6,7-dihydrothieno[3,2-d]pyrimidin-2-yl)piperazin-1-yl)methyl)isoindolin-2-yl)piperidine-2,6-dione]	< 500 nM						
O=C1CCC(N2C(=O)c3ccc(CN4CCN(c5nc(Cl)nc6c5SCC6)CC4)cc3C2=O)C(=O)N1 (centres unmarked) [GT-06710, 5-((4-(2-chloro-6,7-dihydrothieno[3,2-d]pyrimidin-4-yl)piperazin-1-yl)methyl)-2-(2,6-dioxopiperidin-3-yl)isoindoline-1,3-dione]		B (80%< substrate protein remaining %≤ 100%)	B (80%< substrate protein remaining %≤ 100%)	A (0% ≤ substrate protein remaining % ≤ 80%)	B (80%< substrate protein remaining %≤ 100%)	B (80%< substrate protein remaining %≤ 100%)	A (0% ≤ substrate protein remaining % ≤ 80%)
O=C1CCC(N2C(=O)c3ccc(CN4CCc5sccc5C4)cc3C2=O)C(=O)N1 (centres unmarked) [GT-06762, 5-((6,7-dihydrothieno[3,2-c]pyridin-5(4H)-yl)methyl)-2-(2,6-dioxopiperidin-3-yl)isoindoline-1,3-dione]		A (0% ≤ substrate protein remaining % ≤ 80%)	B (80%< substrate protein remaining %≤ 100%)	B (80%< substrate protein remaining %≤ 100%)	A (0% ≤ substrate protein remaining % ≤ 80%)	A (0% ≤ substrate protein remaining % ≤ 80%)	B (80%< substrate protein remaining %≤ 100%)
O=C1CCC(N2C(=O)c3ccc(CN4CCN(c5nsc6ccccc56)CC4)cc3C2=O)C(=O)N1 (centres unmarked) [GT-06763, 5-((4-(benzo[d]isothiazol-3-yl)piperazin-1-yl)methyl)-2-(2,6-dioxopiperidin-3-yl)isoindoline-1,3-dione]		A (0% ≤ substrate protein remaining % ≤ 80%)	B (80%< substrate protein remaining %≤ 100%)	B (80%< substrate protein remaining %≤ 100%)	A (0% ≤ substrate protein remaining % ≤ 80%)	A (0% ≤ substrate protein remaining % ≤ 80%)	A (0% ≤ substrate protein remaining % ≤ 80%)
O=C1CCC(N2C(=O)c3ccc(CN4CCN(Cc5ccc(C67CC8CC(CC(C8)C6)C7)cc5)CC4)cc3C2=O)C(=O)N1 (centres unmarked) [GT-06810, 5-((4-(4-((3r,5r,7r)-adamantan-1-yl)benzyl)piperazin-1-yl)methyl)-2-(2,6-dioxopiperidin-3-yl)isoindoline-1,3-dione]		A (0% ≤ substrate protein remaining % ≤ 80%)	A (0% ≤ substrate protein remaining % ≤ 80%)	A (0% ≤ substrate protein remaining % ≤ 80%)	A (0% ≤ substrate protein remaining % ≤ 80%)	B (80%< substrate protein remaining %≤ 100%)	A (0% ≤ substrate protein remaining % ≤ 80%)
O=C1CCC(N2C(=O)c3ccc(CN4CCCC(C5CCNCC5)C4)cc3C2=O)C(=O)N1 (centres unmarked) [GT-06881, 5-([3,4'-bipiperidin]-1-ylmethyl)-2-(2,6-dioxopiperidin-3-yl)isoindoline-1,3-dione]		A (0% ≤ substrate protein remaining % ≤ 80%)	B (80%< substrate protein remaining %≤ 100%)	B (80%< substrate protein remaining %≤ 100%)	B (80%< substrate protein remaining %≤ 100%)	B (80%< substrate protein remaining %≤ 100%)	A (0% ≤ substrate protein remaining % ≤ 80%)
O=C1CCC(N2C(=O)c3ccc(CNC45CC6CC(CC(C6)C4)C5)cc3C2=O)C(=O)N1 (centres unmarked) [GT-06912, 5-((((3s,5s,7s)-adamantan-1-yl)amino)methyl)-2-(2,6-dioxopiperidin-3-yl)isoindoline-1,3-dione]		A (0% ≤ substrate protein remaining % ≤ 80%)	B (80%< substrate protein remaining %≤ 100%)	A (0% ≤ substrate protein remaining % ≤ 80%)	A (0% ≤ substrate protein remaining % ≤ 80%)	A (0% ≤ substrate protein remaining % ≤ 80%)	A (0% ≤ substrate protein remaining % ≤ 80%)
O=C1CCC(N2C(=O)c3ccc(CN4CCN(c5cnccn5)CC4)cc3C2=O)C(=O)N1 (centres unmarked) [GT-07060, 2-(2,6-dioxopiperidin-3-yl)-5-((4-(pyrazin-2-yl)piperazin-1-yl)methyl)isoindoline-1,3-dione]		A (0% ≤ substrate protein remaining % ≤ 80%)	A (0% ≤ substrate protein remaining % ≤ 80%)	A (0% ≤ substrate protein remaining % ≤ 80%)	A (0% ≤ substrate protein remaining % ≤ 80%)	A (0% ≤ substrate protein remaining % ≤ 80%)	A (0% ≤ substrate protein remaining % ≤ 80%)
O=C1CCC(N2C(=O)c3ccc(CN4CCN(c5cccnn5)CC4)cc3C2=O)C(=O)N1 (centres unmarked) [GT-07844, 2-(2,6-dioxopiperidin-3-yl)-5-((4-(pyridazin-3-yl)piperazin-1-yl)methyl)isoindoline-1,3-dione]		B (80%< substrate protein remaining %≤ 100%)	A (0% ≤ substrate protein remaining % ≤ 80%)	B (80%< substrate protein remaining %≤ 100%)	A (0% ≤ substrate protein remaining % ≤ 80%)	B (80%< substrate protein remaining %≤ 100%)	B (80%< substrate protein remaining %≤ 100%)

More lines, main results first:

IC50 [1]	SMILES	CK1a substrate protein remaining % [2]	IKZF3 substrate protein remaining % [3]	IKZF2 substrate protein remaining % [4]	IKZF 1 substrate protein remaining % [5]	Weel substrate protein remaining % [6]	GSPT1 substrate protein remaining % [7]
< 500 nM	O=C1CCC(N2Cc3cc(CN4CCN(c5ccnc(Cl)c5)CC4)ccc3C2=O)C(=O)N1 (centres unmarked) [GT-04435, 3-(5-((4-(2-chloropyridin-4-yl)piperazin-1-yl)methyl)-1-oxoisoindolin-2-yl)piperidine-2,6-dione]						
< 500 nM	O=C1CCC(N2Cc3cc(CN4CCN(c5c(Cl)cncc5Cl)CC4)ccc3C2=O)C(=O)N1 (centres unmarked) [GT-04436, 3-(5-((4-(3,5-dichloropyridin-4-yl)piperazin-1-yl)methyl)-1-oxoisoindolin-2-yl)piperidine-2,6-dione]						
500 to 1000 nM	O=C1CCC(N2Cc3cc(CN4CCN(c5nc(Cl)nc6c5SCC6)CC4)ccc3C2=O)C(=O)N1 (centres unmarked) [GT-04683, 3-(5-((4-(2-chloro-6,7-dihydrothieno[3,2-d]pyrimidin-4-yl)piperazin-1-yl)methyl)-1-oxoisoindolin-2-yl)piperidine-2,6-dione]						
500 to 1000 nM	O=C1CCC(N2Cc3cc(CN4CCC(c5noc6cc(F)ccc56)CC4)cc(F)c3C2=O)C(=O)N1 (centres unmarked) [GT-04767, 3-(7-fluoro-5-((4-(6-fluorobenzo[d]isoxazol-3-yl)piperidin-1-yl)methyl)-1-oxoisoindolin-2-yl)piperidine-2,6-dione]						
1500 to 1900 nM	O=C1CCC(N2Cc3ccc(CN4CCC(c5noc6cc(F)ccc56)CC4)cc3C2=O)C(=O)N1 (centres unmarked) [GT-04768, 3-(6-((4-(6-fluorobenzo[d]isoxazol-3-yl)piperidin-1-yl)methyl)-1-oxoisoindolin-2-yl)piperidine-2,6-dione]						
500 to 1000 nM	O=C1CCC(N2Cc3cc(CN4CCN(c5c(Cl)ccnc5Cl)CC4)ccc3C2=O)C(=O)N1 (centres unmarked) [GT-04896, 3-(5-((4-(2,4-dichloropyridin-3-yl)piperazin-1-yl)methyl)-1-oxoisoindolin-2-yl)piperidine-2,6-dione]						
< 500 nM	Cc1nc(N2CCN(Cc3ccc4c(c3)CN(C3CCC(=O)NC3=O)C4=O)CC2)c2c(-c3ccccc3)csc2n1 (centres unmarked) [GT-05100, 3-(5-((4-(2-methyl-5-phenylthieno[2,3-d]pyrimidin-4-yl)piperazin-1-yl)methyl)-1-oxoisoindolin-2-yl)piperidine-2,6-dione]						
